Tests used:
UACC-257 = experiment: Growth inhibition of human UACC257 cells at 10 uM after 48 hrs by sulforhodamine B assay; type: functional; details: UACC-257, 48 h, values are per cent of control
RPMI-8226 = experiment: Growth inhibition of human RPMI8226 cells at 10 uM after 48 hrs by sulforhodamine B assay; type: functional; details: RPMI-8226, 48 h, read-out: GI
LOX IMVI = experiment: Growth inhibition of human LOXIMVI cells at 10 uM after 48 hrs by sulforhodamine B assay; type: functional; details: values are per cent of control
NCI-H226 = experiment: Growth inhibition of human NCI-H226 cells at 10 uM after 48 hrs by sulforhodamine B assay; type: functional; details: NCI-H226, 48 h, values are per cent of control
Malme-3M = experiment: Growth inhibition of human MALME-3M cells at 10 uM after 48 hrs by sulforhodamine B assay; type: functional; details: values are per cent of control
Rattus norvegicus [1] = experiment: Antiinflammatory activity against carrageenan-induced paw edema in Wister albino rat assessed as inhibition of edema at 50 mg/kg, ip administered 1 hr prior to carrageenan challenge measured after 3 hrs relative to control; type: functional; details: route intraperitoneal
Rattus norvegicus [2] = experiment: Antiinflammatory activity against carrageenan-induced paw edema in Wister albino rat assessed as inhibition of edema at 50 mg/kg, ip administered 1 hr prior to carrageenan challenge measured after 4 hrs relative to indomethacin; type: functional; details: route intraperitoneal
Rattus norvegicus [3] = experiment: Antiinflammatory activity against carrageenan-induced paw edema in Wister albino rat assessed as inhibition of edema at 50 mg/kg, ip administered 1 hr prior to carrageenan challenge measured after 1 hr relative to control; type: functional; details: route intraperitoneal
HCT-116 = experiment: Growth inhibition of human HCT116 cells at 10 uM after 48 hrs by sulforhodamine B assay; type: functional; details: HCT-116, 48 h, values are per cent of control
[4] = Growth inhibition of human Hs 578T cells at 10 uM after 48 hrs by sulforhodamine B assay; type: functional; details: values are per cent of control
SK-MEL-2 = experiment: Growth inhibition of human SK-MEL-2 cells at 10 uM after 48 hrs by sulforhodamine B assay; type: functional; details: SK-MEL-2, 48 h, read-out: GI
BT-549 = experiment: Growth inhibition of human BT549 cells at 10 uM after 48 hrs by sulforhodamine B assay; type: functional; details: BT-549, 48 h, values are per cent of control
HCC 2998 = experiment: Growth inhibition of human HCC2998 cells at 10 uM after 48 hrs by sulforhodamine B assay; type: functional; details: HCC 2998, 48 h, values are per cent of control
SK-MEL-28 = experiment: Growth inhibition of human SK-MEL-28 cells at 10 uM after 48 hrs by sulforhodamine B assay; type: functional; details: SK-MEL-28, 48 h, values are per cent of control
OVCAR-8 = experiment: Growth inhibition of human OVCAR8 cells at 10 uM after 48 hrs by sulforhodamine B assay; type: functional; details: OVCAR-8, 48 h, read-out: GI
HOP-92 = experiment: Growth inhibition of human HOP92 cells at 10 uM after 48 hrs by sulforhodamine B assay; type: functional; details: HOP-92, 48 h, read-out: GI
786-0 = experiment: Growth inhibition of human 786-0 cells at 10 uM after 48 hrs by sulforhodamine B assay; type: functional; details: 786-0, 48 h, values are per cent of control
SK-OV-3 = experiment: Growth inhibition of human SKOV3 cells at 10 uM after 48 hrs by sulforhodamine B assay; type: functional; details: SK-OV-3, 48 h, values are per cent of control
NCI-H322M = experiment: Growth inhibition of human NCI-H322M cells at 10 uM after 48 hrs by sulforhodamine B assay; type: functional; details: values are per cent of control
HT-29 = experiment: Growth inhibition of human HT-29 cells at 10 uM after 48 hrs by sulforhodamine B assay; type: functional; details: HT-29, 48 h, values are per cent of control
EKVX = experiment: Growth inhibition of human EKVX cells at 10 uM after 48 hrs by sulforhodamine B assay; type: functional; details: values are per cent of control
MDA-MB-231 = experiment: Growth inhibition of human MDA-MB-231 cells at 10 uM after 48 hrs by sulforhodamine B assay; type: functional; details: MDA-MB-231, 48 h, values are per cent of control
A498 = experiment: Growth inhibition of human A498 cells at 10 uM after 48 hrs by sulforhodamine B assay; type: functional; details: A498, 48 h, values are per cent of control
OVCAR-5 = experiment: Growth inhibition of human OVCAR5 cells at 10 uM after 48 hrs by sulforhodamine B assay; type: functional; details: OVCAR-5, 48 h, values are per cent of control
SNB-75 = experiment: Growth inhibition of human SNB75 cells at 10 uM after 48 hrs by sulforhodamine B assay; type: functional; details: SNB-75, 48 h, values are per cent of control
CCRF-CEM = experiment: Growth inhibition of human CCRF-CEM cells at 10 uM after 48 hrs by sulforhodamine B assay; type: functional; details: values are per cent of control
MCF7 = experiment: Growth inhibition of human MCF7 cells at 10 uM after 48 hrs by sulforhodamine B assay; type: functional; details: MCF7, 48 h, values are per cent of control
MDA-MB-435 = experiment: Growth inhibition of human MDA-MB-435 cells at 10 uM after 48 hrs by sulforhodamine B assay; type: functional; details: MDA-MB-435, 48 h, values are per cent of control
PC-3 = experiment: Growth inhibition of human PC3 cells at 10 uM after 48 hrs by sulforhodamine B assay; type: functional; details: PC-3, 48 h, values are per cent of control
DU-145 = experiment: Growth inhibition of human DU145 cells at 10 uM after 48 hrs by sulforhodamine B assay; type: functional; details: DU-145, 48 h, values are per cent of control
Rattus norvegicus [5] = experiment: Antiinflammatory activity against carrageenan-induced paw edema in Wister albino rat assessed as inhibition of edema at 50 mg/kg, ip administered 1 hr prior to carrageenan challenge measured after 2 hrs relative to control; type: functional; details: route intraperitoneal
HOP-62 = experiment: Growth inhibition of human HOP62 cells at 10 uM after 48 hrs by sulforhodamine B assay; type: functional; details: HOP-62, 48 h, values are per cent of control
OVCAR-3 = experiment: Growth inhibition of human OVCAR-3 cells at 10 uM after 48 hrs by sulforhodamine B assay; type: functional; details: OVCAR-3, 48 h, values are per cent of control
NCI-H23 = experiment: Growth inhibition of human NCI-H23 cells at 10 uM after 48 hrs by sulforhodamine B assay; type: functional; details: NCI-H23, 48 h, values are per cent of control
TK-10 = experiment: Growth inhibition of human TK10 cells at 10 uM after 48 hrs by sulforhodamine B assay; values are per cent of control; details: TK-10, 48 h
SF-268 = experiment: Growth inhibition of human SF268 cells at 10 uM after 48 hrs by sulforhodamine B assay; type: functional; details: SF-268, 48 h, values are per cent of control
MOLT-4 = experiment: Growth inhibition of human MOLT4 cells at 10 uM after 48 hrs by sulforhodamine B assay; type: functional; details: MOLT-4, 48 h, values are per cent of control
UACC-62 = experiment: Growth inhibition of human UACC62 cells at 10 uM after 48 hrs by sulforhodamine B assay; type: functional; details: UACC-62, 48 h, values are per cent of control

| Compound | growth, % of control at 10 µM (UACC-257) [%] | inhibition of growth at 10 µM (RPMI-8226) [%] | growth, % of control at 10 µM (LOX IMVI) [%] | growth, % of control at 10 µM (NCI-H226) [%] | growth, % of control at 10 µM (Malme-3M) [%] | inhibition in vivo at 50 mg/kg (Rattus norvegicus [1]) [%] | activity relative to indomethacin (Rattus norvegicus [2]) [%] | inhibition in vivo at 50 mg/kg (Rattus norvegicus [3]) [%] | growth, % of control at 10 µM (HCT-116) [%] | growth, % of control at 10 µM [4] [%] | inhibition of growth at 10 µM (SK-MEL-2) [%] | growth, % of control at 10 µM (BT-549) [%] | growth, % of control at 10 µM (HCC 2998) [%] | growth, % of control at 10 µM (SK-MEL-28) [%] | inhibition of growth at 10 µM (OVCAR-8) [%] | inhibition of growth at 10 µM (HOP-92) [%] | growth, % of control at 10 µM (786-0) [%] | growth, % of control at 10 µM (SK-OV-3) [%] | growth, % of control at 10 µM (NCI-H322M) [%] | growth, % of control at 10 µM (HT-29) [%] | also measured |
| --- | --- | --- | --- | --- | --- | --- | --- | --- | --- | --- | --- | --- | --- | --- | --- | --- | --- | --- | --- | --- | --- |
| [3H]N1C(=O)[C@@]2(c3ccccc31)N(C)C[C@@H](c1ccc(Cl)cc1)[C@@]21Cc2ccccc2C1=O | 34.5 | 36.6 | 65.2 | 73.7 | 120 | 18.9 | 32 | 27.9 | 54.6 | -4.92 | -6.14 | 121 | 95.7 | 112 | 69.2 | 50.2 | 88.9 | 91 | 104 | 73.8 | growth, % of control at 10 µM (EKVX): 52.5%; growth, % of control at 10 µM (MDA-MB-231): 75.1%; growth, % of control at 10 µM (A498): 61.9%; growth, % of control at 10 µM (OVCAR-5): 93.2%; growth, % of control at 10 µM (SNB-75): 61.1%; growth, % of control at 10 µM (CCRF-CEM): 74.7%; growth, % of control at 10 µM (MCF7): 109%; growth, % of control at 10 µM (MDA-MB-435): 95.1%; growth, % of control at 10 µM (PC-3): 36.5%; growth, % of control at 10 µM (DU-145): 103%; inhibition in vivo at 50 mg/kg (Rattus norvegicus [5]): 28.4%; growth, % of control at 10 µM (HOP-62): 87.5%; growth, % of control at 10 µM (OVCAR-3): 78.6%; growth, % of control at 10 µM (NCI-H23): 75%; growth, % of control at 10 µM (TK-10): 144%; growth, % of control at 10 µM (SF-268): 90%; growth, % of control at 10 µM (MOLT-4): 57%; growth, % of control at 10 µM (UACC-62): 45.8% |
| [3H]C([3H])([3H])N1C(=O)[C@@]2(c3ccccc31)N(C)C[C@@H](c1ccc(Cl)cc1)[C@@]21Cc2ccccc2C1=O | 42.6 | 13.4 | 72.2 | 63.2 | 102 | 9.4 | 18 | 47.2 | 24.3 | 55.2 | -11.1 | 111 | 88 | 90.6 | 60.9 | 25.1 | 86.2 | 86.6 | 106 | 46.1 | growth, % of control at 10 µM (EKVX): 72.6%; growth, % of control at 10 µM (MDA-MB-231): 79.3%; growth, % of control at 10 µM (A498): 82.3%; growth, % of control at 10 µM (OVCAR-5): 95.4%; growth, % of control at 10 µM (SNB-75): 75.3%; growth, % of control at 10 µM (CCRF-CEM): 108%; growth, % of control at 10 µM (MCF7): 91.8%; growth, % of control at 10 µM (MDA-MB-435): 101%; growth, % of control at 10 µM (PC-3): 38.3%; growth, % of control at 10 µM (DU-145): 91.1%; inhibition in vivo at 50 mg/kg (Rattus norvegicus [5]): 36.3%; growth, % of control at 10 µM (HOP-62): 88.1%; growth, % of control at 10 µM (OVCAR-3): 69.3%; growth, % of control at 10 µM (NCI-H23): 58%; growth, % of control at 10 µM (TK-10): 140%; growth, % of control at 10 µM (SF-268): 81.1%; growth, % of control at 10 µM (MOLT-4): 87.5%; growth, % of control at 10 µM (UACC-62): 48.4% |
